Reference: patent publication US8192962B2, “Processes for detecting toxic substances” (Daikin Industries, Ltd., priority 2001, dated 2012)

System: Detoxification protein genes
Assay: DNA chip mRNA expression in yeast, detoxification protein genes (Table 8)
Assay type: cell-based, Saccharomyces cerevisiae S288C
In short: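 Cells were grown at 25° C. in YPD, treated at logarithmic phase for 2 h with a chemical at a concentration inhibiting growth but not causing death, and compared with untreated cultures. Labeled cDNA was hybridized to a DNA chip carrying all yeast genes, and the expression ratio was taken from scanner fluorescence.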

**Q.** For `N#Cc1c(Cl)c(Cl)c(Cl)c(C#N)c1Cl` [(9), 2,4,5,6-tetrachloro-1,3-benzenedicarbonitrile], which “The level of expressed mRNA in the presence of chemical substance/The level of expressed mRNA in the absence of chemical substance” value (yeast gene YBL064C) is on record?
**A.** 4.5

**Q.** What about the “The level of expressed mRNA in the presence of chemical substance/The level of expressed mRNA in the absence of chemical substance” value (yeast gene YBR008C) of the same molecule?
**A.** 54.6

**Q.** And the “The level of expressed mRNA in the presence of chemical substance/The level of expressed mRNA in the absence of chemical substance” value (yeast gene YBR145W)?
**A.** 0.1

**Q.** And the “The level of expressed mRNA in the presence of chemical substance/The level of expressed mRNA in the absence of chemical substance” value (yeast gene YBR244W)?
**A.** 1.4

**Q.** And the “The level of expressed mRNA in the presence of chemical substance/The level of expressed mRNA in the absence of chemical substance” value (yeast gene YBR293W)?
**A.** 5.5

**Q.** And the “The level of expressed mRNA in the presence of chemical substance/The level of expressed mRNA in the absence of chemical substance” value (yeast gene YCL035C)?
**A.** 1.9

**Q.** What about the “The level of expressed mRNA in the presence of chemical substance/The level of expressed mRNA in the absence of chemical substance” value (yeast gene YCL069W) of the same molecule?
**A.** 1.2

**Q.** What about the “The level of expressed mRNA in the presence of chemical substance/The level of expressed mRNA in the absence of chemical substance” value (yeast gene YCR083W) of the same molecule?
**A.** 1.8

**Q.** And the “The level of expressed mRNA in the presence of chemical substance/The level of expressed mRNA in the absence of chemical substance” value (yeast gene YDL100C)?
**A.** 5.4

**Q.** And the “The level of expressed mRNA in the presence of chemical substance/The level of expressed mRNA in the absence of chemical substance” value (yeast gene YDL168W)?
**A.** 8.2

**Q.** What about the “The level of expressed mRNA in the presence of chemical substance/The level of expressed mRNA in the absence of chemical substance” value (yeast gene YDR256C) of the same molecule?
**A.** 5.2

**Q.** What about the “The level of expressed mRNA in the presence of chemical substance/The level of expressed mRNA in the absence of chemical substance” value (yeast gene YDR453C) of the same molecule?
**A.** 4.5

**Q.** And the “The level of expressed mRNA in the presence of chemical substance/The level of expressed mRNA in the absence of chemical substance” value (yeast gene YDR513W)?
**A.** 4.6

**Q.** What about the “The level of expressed mRNA in the presence of chemical substance/The level of expressed mRNA in the absence of chemical substance” value (yeast gene YDR538W) of the same molecule?
**A.** 0.3

**Q.** And the “The level of expressed mRNA in the presence of chemical substance/The level of expressed mRNA in the absence of chemical substance” value (yeast gene YEL027W)?
**A.** 0.9

**Q.** And the “The level of expressed mRNA in the presence of chemical substance/The level of expressed mRNA in the absence of chemical substance” value (yeast gene YEL065W)?
**A.** 0.1

**Q.** What about the “The level of expressed mRNA in the presence of chemical substance/The level of expressed mRNA in the absence of chemical substance” value (yeast gene YER185W) of the same molecule?
**A.** 2.9

**Q.** What about the “The level of expressed mRNA in the presence of chemical substance/The level of expressed mRNA in the absence of chemical substance” value (yeast gene YFL050C) of the same molecule?
**A.** 0.5

**Q.** What about the “The level of expressed mRNA in the presence of chemical substance/The level of expressed mRNA in the absence of chemical substance” value (yeast gene YGL013C) of the same molecule?
**A.** 3.0

**Q.** And the “The level of expressed mRNA in the presence of chemical substance/The level of expressed mRNA in the absence of chemical substance” value (yeast gene YGL254W)?
**A.** 3.1

**Q.** And the “The level of expressed mRNA in the presence of chemical substance/The level of expressed mRNA in the absence of chemical substance” value (yeast gene YGR088W)?
**A.** 1.5

**Q.** What about the “The level of expressed mRNA in the presence of chemical substance/The level of expressed mRNA in the absence of chemical substance” value (yeast gene YGR138C) of the same molecule?
**A.** 0.5

**Q.** What about the “The level of expressed mRNA in the presence of chemical substance/The level of expressed mRNA in the absence of chemical substance” value (yeast gene YGR197C) of the same molecule?
**A.** 16.7

**Q.** And the “The level of expressed mRNA in the presence of chemical substance/The level of expressed mRNA in the absence of chemical substance” value (yeast gene YGR209C)?
**A.** 2.4

**Q.** What about the “The level of expressed mRNA in the presence of chemical substance/The level of expressed mRNA in the absence of chemical substance” value (yeast gene YGR224W) of the same molecule?
**A.** 0.9

**Q.** And the “The level of expressed mRNA in the presence of chemical substance/The level of expressed mRNA in the absence of chemical substance” value (yeast gene YHL040C)?
**A.** 1.1

**Q.** And the “The level of expressed mRNA in the presence of chemical substance/The level of expressed mRNA in the absence of chemical substance” value (yeast gene YHL047C)?
**A.** 1.2

**Q.** And the “The level of expressed mRNA in the presence of chemical substance/The level of expressed mRNA in the absence of chemical substance” value (yeast gene YHR008C)?
**A.** 1.7

**Q.** And the “The level of expressed mRNA in the presence of chemical substance/The level of expressed mRNA in the absence of chemical substance” value (yeast gene YHR048W)?
**A.** 4.5

**Q.** And the “The level of expressed mRNA in the presence of chemical substance/The level of expressed mRNA in the absence of chemical substance” value (yeast gene YHR053C)?
**A.** 4.5

**Q.** What about the “The level of expressed mRNA in the presence of chemical substance/The level of expressed mRNA in the absence of chemical substance” value (yeast gene YHR055C) of the same molecule?
**A.** 3.9

**Q.** And the “The level of expressed mRNA in the presence of chemical substance/The level of expressed mRNA in the absence of chemical substance” value (yeast gene YIR002C)?
**A.** 1.7

**Q.** What about the “The level of expressed mRNA in the presence of chemical substance/The level of expressed mRNA in the absence of chemical substance” value (yeast gene YIR038C) of the same molecule?
**A.** 4.6

**Q.** What about the “The level of expressed mRNA in the presence of chemical substance/The level of expressed mRNA in the absence of chemical substance” value (yeast gene YJL101C) of the same molecule?
**A.** 3.1

**Q.** What about the “The level of expressed mRNA in the presence of chemical substance/The level of expressed mRNA in the absence of chemical substance” value (yeast gene YJR104C) of the same molecule?
**A.** 1.9

**Q.** And the “The level of expressed mRNA in the presence of chemical substance/The level of expressed mRNA in the absence of chemical substance” value (yeast gene YKL026C)?
**A.** 7.5

**Q.** And the “The level of expressed mRNA in the presence of chemical substance/The level of expressed mRNA in the absence of chemical substance” value (yeast gene YKL064W)?
**A.** 2.4

**Q.** And the “The level of expressed mRNA in the presence of chemical substance/The level of expressed mRNA in the absence of chemical substance” value (yeast gene YKR066C)?
**A.** 0.7

**Q.** And the “The level of expressed mRNA in the presence of chemical substance/The level of expressed mRNA in the absence of chemical substance” value (yeast gene YKR105C)?
**A.** 1.0

**Q.** And the “The level of expressed mRNA in the presence of chemical substance/The level of expressed mRNA in the absence of chemical substance” value (yeast gene YKR106W)?
**A.** 10.5

**Q.** And the “The level of expressed mRNA in the presence of chemical substance/The level of expressed mRNA in the absence of chemical substance” value (yeast gene YLL028W)?
**A.** 1.2

**Q.** What about the “The level of expressed mRNA in the presence of chemical substance/The level of expressed mRNA in the absence of chemical substance” value (yeast gene YLL057C) of the same molecule?
**A.** 121.8

**Q.** And the “The level of expressed mRNA in the presence of chemical substance/The level of expressed mRNA in the absence of chemical substance” value (yeast gene YLL060C)?
**A.** 13.0

**Q.** And the “The level of expressed mRNA in the presence of chemical substance/The level of expressed mRNA in the absence of chemical substance” value (yeast gene YLR043C)?
**A.** 2.8

**Q.** What about the “The level of expressed mRNA in the presence of chemical substance/The level of expressed mRNA in the absence of chemical substance” value (yeast gene YLR046C) of the same molecule?
**A.** 1.0

**Q.** And the “The level of expressed mRNA in the presence of chemical substance/The level of expressed mRNA in the absence of chemical substance” value (yeast gene YML028W)?
**A.** 0.8

**Q.** What about the “The level of expressed mRNA in the presence of chemical substance/The level of expressed mRNA in the absence of chemical substance” value (yeast gene YML116W) of the same molecule?
**A.** 1.4

**Q.** And the “The level of expressed mRNA in the presence of chemical substance/The level of expressed mRNA in the absence of chemical substance” value (yeast gene YMR015C)?
**A.** 0.1

**Q.** And the “The level of expressed mRNA in the presence of chemical substance/The level of expressed mRNA in the absence of chemical substance” value (yeast gene YMR038C)?
**A.** 2.4

**Q.** What about the “The level of expressed mRNA in the presence of chemical substance/The level of expressed mRNA in the absence of chemical substance” value (yeast gene YNL239W) of the same molecule?
**A.** 2.5

**Q.** And the “The level of expressed mRNA in the presence of chemical substance/The level of expressed mRNA in the absence of chemical substance” value (yeast gene YNL241C)?
**A.** 3.4

**Q.** What about the “The level of expressed mRNA in the presence of chemical substance/The level of expressed mRNA in the absence of chemical substance” value (yeast gene YNL259C) of the same molecule?
**A.** 1.6

**Q.** What about the “The level of expressed mRNA in the presence of chemical substance/The level of expressed mRNA in the absence of chemical substance” value (yeast gene YOL158C) of the same molecule?
**A.** 1.7

**Q.** What about the “The level of expressed mRNA in the presence of chemical substance/The level of expressed mRNA in the absence of chemical substance” value (yeast gene YOR031W) of the same molecule?
**A.** 0.7

**Q.** And the “The level of expressed mRNA in the presence of chemical substance/The level of expressed mRNA in the absence of chemical substance” value (yeast gene YOR153W)?
**A.** 3.2

**Q.** And the “The level of expressed mRNA in the presence of chemical substance/The level of expressed mRNA in the absence of chemical substance” value (yeast gene YOR247W)?
**A.** 0.1

**Q.** What about the “The level of expressed mRNA in the presence of chemical substance/The level of expressed mRNA in the absence of chemical substance” value (yeast gene YOR251C) of the same molecule?
**A.** 0.8

**Q.** And the “The level of expressed mRNA in the presence of chemical substance/The level of expressed mRNA in the absence of chemical substance” value (yeast gene YOR273C)?
**A.** 0.6

**Q.** And the “The level of expressed mRNA in the presence of chemical substance/The level of expressed mRNA in the absence of chemical substance” value (yeast gene YPL163C)?
**A.** 0.1

**Q.** What about the “The level of expressed mRNA in the presence of chemical substance/The level of expressed mRNA in the absence of chemical substance” value (yeast gene YPR200C) of the same molecule?
**A.** 4.7
